{"source": "patent US20170333388A1", "about": "“Therapeutic compound and its application in repairing diabetes-related cardiac injuries” (Numen Biotech Co., Ltd, priority 2016, published 2017)", "type_in_all_cases": "cell-based, rat", "key": {"[1]": {"test_system": "adipose-derived stem cells (ADSC)", "test": "stem cell proliferation (colony) experiment in high glucose medium", "conditions": "high glucose destroyed stem cells (33 mM glucose)", "experimental": "The adipose-derived stem cells were taken out from the abdominal adipose tissue of 8-month-old Wistar male rats via surgery. After cutting the adipose tissues into suitable sizes, the adipose tissues were washed by antibiotic containing saline. The washed adipose tissues were placed into a Type II collagenase (0.01%) containing saline, and were stirred and heated under 37° C. water bath for 1 hour. Then the adipose tissues were centrifuged by 3000 rpm under room temperature for 10 minute, the precipitants were extracted for cell culture in the culture dish.\nIn the aspect of stem cell proliferation experiment, the more the number of stem cell colonies in different experimental conditions represents for the better growth experiment condition for stem cells. The stem cells were divided into 5 different groups, which were: Group 1: stem cell group, Group 2: high glucose destroyed stem cell group, Group 3: EGCG (2.5 μM in concentration) precondition high glucose destroyed stem cell group, Group 4: EGCG (5 μM in concentration) precondition high glucose destroyed stem cell group, Group 5: EGCG (10 μM in concentration) precondition high glucose destroyed stem cell group. […] In comparison with the normal stem cell group (Group 1), the distribution of the stem cells colonies cultured in high glucose medium was inhibited (Group 1>Group 2, p<0.001). In contrast, in comparison to the high glucose destroyed stem cells, the stem cell colonies were recovered under different EGCG concentration precondition (Group 2<Group 3, p<0.05; Group 2<Group 4, p<0.05; Group 2<Group 5, p<0.01). Then the migration ability of stem cells under different experiment conditions was tested. The more numbers of stem cells represent the stem cells have stronger migration ability under this experiment condition."}, "[2]": {"test_system": "adipose-derived stem cells (ADSC)", "test": "transwell migration assay of ADSC in high glucose medium", "experimental": "The stem cells were divided into five different groups, which were: Group 1: stem cell group, Group 2: high glucose destroyed stem cell group, Group 3: EGCG (2.5 μM in concentration) precondition high glucose destroyed stem cell group, Group 4: EGCG (5 μM in concentration) precondition high glucose destroyed stem cell group, Group 5: EGCG (10 μM in concentration) precondition high glucose destroyed stem cell group. […] The migration ability of the five groups was: 63±10, 36±7, 55±5, 84±6 and 144±4, respectively. In comparison with the normal stem cell group (Group 1), the migration ability of the stem cells cultured in high glucose medium was decreased (Group 1>Group 2, p<0.05). In contrast, in comparison to the high glucose destroyed stem cells, the migration ability of stem cells was recovered under different EGCG concentration precondition (Group 2<Group 3, p<0.05; Group 2<Group 4, p<0.001; Group 2<Group 5, p<0.001). Then the migration ability of stem cells under different experiment conditions was tested. The more numbers of stem cells represents the stem cells have stronger migration ability under this experiment condition.\nDuring the analysis of protein expression level, the EGCG induced expression level of CXCR4 and p-Akt increase would be eliminated by siRNA CXCR4. […] The stem cells were divided into six groups in this test, which were: Group 1: stem cell group, Group 2: high glucose destroyed stem cell group, Group 3: EGCG (10 μM in concentration) precondition high glucose destroyed stem cell group, Group 4: siRNA CXCR4 (3 nM) was added in Group 3, Group 5: CXCR4 siRNA (10 nM) was added into Group 4. The numbers of migrated stem cells were 288±25, 36±7, 159±17, 84±6, 41±8 and 40±2 respectively."}, "[3]": {"test_system": "adipose-derived stem cells (ADSC)", "test": "Western blot of protein expression in ADSC preconditioned with EGCG", "experimental": "After the drug treatment, the culture medium was removed from the cells and rinsed with PBS buffer for three times; then 1 mL PBS was used to scrape the cells from the dish and the cells containing solution was placed in a centrifuge tube, and the solution was centrifuged by 12,000 rpm for 10 minutes, then the supernatant was removed, and the lysis buffer (50 mM Tris pH 7.5,0.5 M NaCl, 1.0 mM EDTA pH 7.5,1 mM BME, 1% NP40,10% glycerol, protease inhibitor cocktail table) was added and mixed. The mixture was placed on ice and shock once every 5 minutes for 30 minutes, and then the mixture was centrifuged at 12,000 g in 4° C. for 10 minutes, the upper layer was placed in a new tube to measure the protein concentration.\nAfter the drug treatment, the culture medium was removed from the cells and rinsed with PBS buffer for three times; then 1 mL PBS was used to scrape the cells from the dish and the cells containing solution was placed in a centrifuge tube, and the solution was centrifuged by 12,000 rpm for 10 minutes then the supernatant was removed and extraction buffer (50 mM Tris pH 7.5-0.5 M NaCl-1.0 mM EDTA pH 7.5-10% glycerol-protease inhibitor cocktail table) was added into the mill tube, then grinded on ice. And the homogenate was then placed in a new centrifuge tube to centrifuge at 4° C. by 12,000 rpm for 10 minutes, the upper layer was placed in a new centrifuge tube for measuring the protein concentration.\n[…] protein samples were added into a PBS solution, and 5× loading dye was added then mixed evenly and boiled for 10 minutes, then analyze by SDS-polyacrylamide slab gel electrophoresis. The upper layer of the SDS-polyacrylamide gel electrophoresis was 3.75% Stacking gel, and the lower layer was 5% and 12% Separating gel. The plastic plates was fixed to the electrophoresis apparatus and the electrophoresis buffer was filled into the electrophoresis tank, and then the treated protein sample was added into the U-shaped groove formed on a plastic plate, and undergo electrophoresis with 75 volts. […]"}, "[4]": {"conditions": "EGCG precondition at different concentrations vs high glucose destroyed stem cells"}}}
{"smiles": "O=C(O[C@@H]1Cc2c(O)cc(O)cc2O[C@@H]1c1cc(O)c(O)c(O)c1)c1cc(O)c(O)c(O)c1", "note": "[EGCG, epigallocatechin gallate]", "values": [{"measurement": "stem cell colonies", "setting": "[1]; EGCG 2.5 μM precondition", "value": "152±17"}, {"measurement": "stem cell colonies", "setting": "[1]; EGCG 5 μM precondition", "value": "178±22"}, {"measurement": "stem cell colonies", "setting": "[1]; EGCG 10 μM precondition", "value": "226±31"}, {"measurement": "migration ability (numbers of migrated stem cells)", "setting": "[2]; FIG. 4, EGCG 2.5 μM precondition", "value": "55±5"}, {"measurement": "migration ability (numbers of migrated stem cells)", "setting": "[2]; FIG. 4, EGCG 5 μM precondition", "value": "84±6"}, {"measurement": "migration ability (numbers of migrated stem cells)", "setting": "[2]; FIG. 4, EGCG 10 μM precondition", "value": "144±4"}, {"measurement": "numbers of migrated stem cells", "setting": "[2]; FIG. 7, Group 3: EGCG 10 μM precondition", "value": "159±17"}, {"measurement": "numbers of migrated stem cells", "setting": "[2]; FIG. 7, Group 4: EGCG 10 μM precondition, siRNA CXCR4 3 nM added", "value": "84±6"}, {"measurement": "numbers of migrated stem cells", "setting": "[2]; FIG. 7, Group 5: EGCG 10 μM precondition, CXCR4 siRNA 10 nM added", "value": "41±8"}, {"measurement": "apoptosis protein cytochrome-C expression level", "setting": "[3]; [4]", "value": "decreased"}, {"measurement": "migration protein (CXCR4) expression level", "setting": "[3]; [4]", "value": "recovered"}, {"measurement": "EGCG induced increase of CXCR4 and p-Akt expression level", "setting": "[3]; FIG. 6, in the presence of siRNA CXCR4", "value": "eliminated"}]}
